According to PubChem BioAssay AID179 (DTP/NCI, 2004):
Values joined by “and” are separate entries in the source; they are usually repeats but may differ in a detail not shown here. Identical values can stand only once. Active and inactive are the calls of the source.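 How the source made its calls: active means compounds giving half or more protection of infected cells from virus-caused growth loss, again on retest; inactive means the rest.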

Test system: CEM cells HIV-1 protection, formazan growth assay
Assay: NCI AIDS Antiviral Assay
Settings: for IC50: measured here: growth of uninfected CEM cells
How it was run: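 Protection of CEM cells against HIV-1 was scored from cell growth (soluble formazan) across five concentrations, with parallel uninfected cells. Lack of protection may reflect toxicity.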

Structure (SMILES)	EC50 [µM]	IC50	outcome
COC(=O)NC[C@@H]1OCc2cc3c(cc2[C@]12CC=CCC2)OCO3	> 107	6.92 µM	
O=C1CC2C1C1C=CC2n2c(=O)n(-c3ccccc3)c(=O)n21 (configuration not stated)	> 224	> 224 µM	
C=CCn1c(=O)c2ccccc2[n+]2c(-c3cccc([N+](=O)[O-])c3)csc12	> 200	> 200 µM	
COC1(OC)C2(Cl)C(Cl)=C(Cl)C1(Cl)C1COCC12 (configuration not stated)			inactive
CC(C)C(=O)OCC1CCCN2CCCCC12 (configuration not stated)	> 200	> 100 µM	
Cn1ccnc1SC(F)(F)c1nc2ccccc2o1	> 200	148 µM	
COC(=O)c1cc(C(=C(Cl)Cl)c2cc(C(=O)OC)c(OC)c(Br)c2C)c(C)c(Br)c1OC	> 200	79.4 µM	
COc1ccc(OC(C)C(=O)O)c2c1CCCC2=O (configuration not stated)			inactive
c1ccc(-c2cc(-c3cc(-c4ccccc4)n[nH]3)[nH]n2)cc1	> 200	> 200 µM	
O=C(CCc1cc(O)ccc1O)OCCc1ccccc1	> 20	10.2 µM	
CC(C)S(=O)(=O)ON1C(=O)c2ccc([N+](=O)[O-])cc2C1=O	> 115	18.2 µM	
O=NC1C(Cl)C2CC1C1C(Br)C(Br)CC21 (configuration not stated)	> 200	> 200 µM	
CCN(CC)CCOc1ccc(/C=C(\C#N)c2ccc(OCCN(CC)CC)cc2)cc1	> 53.7	3.72 µM and 6.92 µM	
O=S(c1ccccc1)C1CC2CC3(CCC21O)OCCO3 (configuration not stated)	> 200	> 200 µM	
Cc1nn(C(=O)Cc2ccccc2)c2c1C(c1ccc(Cl)cc1)SC(N)=N2 (configuration not stated)	110	158 µM	
NC(=O)c1cc(/C=C/c2ccccc2)on1	> 200	> 200 µM	
CN(C)Cc1cc(C(=O)/C=C/c2ccc([N+](=O)[O-])cc2)cc(CN(C)C)c1O	> 200	2.82 µM	
COC(=O)Nc1nc2ccc(C(=O)c3ccc[nH]3)cc2[nH]1	> 200	0.977 µM and 1.66 µM	
Cc1nc(N)nc(N)c1N1CCN(Cc2ccccc2)CC1	> 200	6.92 µM	
CN1N=C(c2ccncc2)OC1c1ccc(Cl)c(Cl)c1 (configuration not stated)	> 200	85.1 µM	
O=S(=O)(Nc1ccc(NS(=O)(=O)c2ccccc2)c(N2N=N2)c1)c1ccccc1	> 200	51.3 µM	
CCCC(=O)Nc1cc2c3c(c1)CCCN3CCC2	> 200	79.4 µM	

Structure (SMILES)	EC50 [µM]	IC50	outcome
Nc1[nH]c(=O)ncc1F	> 200	> 200 µM	
CC(C)[C@@H](C)[C@@]1(C)C[C@@H]1[C@@H](C)[C@H]1CC[C@@H]([C@@H]2CC=C3C[C@@H](O)CC[C@]3(C)C2=O)[C@]1(C)CCO	> 200	8.51 µM	
O=C1C=CC(=O)c2c1ccc1c3ccccc3n(CCCCCCCCCCCCn3c4ccccc4c4ccc5c(c43)C(=O)C=CC5=O)c21	> 100	72.4 µM	
NC1=NCC(CN2CCCC2)O1 (configuration not stated)	> 200	> 200 µM	
COC(=O)[C@H](NC(=O)OC(C)(C)C)[C@H]1COC(C)(C)O1	> 200	> 200 µM	
CCn1c(N)c(N=O)c(=O)n(CC)c1=O	> 200	> 200 µM	
CCOC(=O)c1ccc2c(=O)n3c(C(=O)OCC)ccc3c(=O)n12	162	> 200 µM	
O=C1CCCCC1CN1CCCCC1 (configuration not stated)			inactive
O=[N+]([O-])c1ccc(S(=O)(=O)N/N=C/c2ccco2)cc1	> 316	166 µM	
CC12C(C(=O)O)C1(c1ccccc1)C2C(=O)O (configuration not stated)	> 1070	> 1070 µM	
O=NNc1ccc(S(=O)(=O)c2ccccc2)cn1	> 200	> 200 µM	
N#Cc1ccc(Oc2nc3ccccc3nc2C(=O)O)cc1	> 200	> 200 µM	
COC(=O)CCc1ccc2c(c1)CC1(C2)Cc2ccc3c(c2C1)CCC3 (configuration not stated)	> 200	> 200 µM	
CCC12C=CCN(CCc3c([nH]c4ccccc34)/C=C\1)C2 (configuration not stated)	> 295	> 295 µM	
CC(=O)[O-].CC(=O)[O-].O=C(N/N=C/c1cc(Cl)cc(Cl)c1O)c1ccncc1.[Cu+2]			inactive
O=C1C(Cl)N(c2ccccc2Cl)C1c1c[nH]c2ccccc12 (configuration not stated)	> 398	> 200 µM	
CC1CN=C(NCc2ccccc2)S1 (configuration not stated)	> 200	> 200 µM	
Nc1nn2cc3c(nc2c1N=Nc1ccccc1)-c1ccccc1CC3	> 200	> 200 µM	
NC(CSCCSCC(N)C(=O)O)C(=O)O (configuration not stated)	> 10	> 10 µM	
O=C1c2cc([N+](=O)[O-])ccc2NC1(c1c[nH]c2ccccc12)c1c[nH]c2ccc(Br)cc12 (configuration not stated)	> 200	26.3 µM	
C[n+]1c(-c2ccc(/C=N\NC(=O)c3ccc(C(=O)N/N=C/c4ccc(-c5cn6ccsc6[n+]5C)cc4)cc3)cc2)cn2ccsc21	> 50.1	0.501 µM	
